In publication PMC7909954 (eLife, 2021):
Several values for one entry are separate records, joined by “and”; a condition that tells them apart may be missing. Identical values can stand only once. Like-named read-outs stand apart in the source and are kept apart here.

Experiments:
SERT = biological target: T1, SERT (Homo sapiens, UniProt P31645); assay: Radioligand binding counter-screen (NIMH PDSP)
T1 construct: NIMH Psychoactive Drug Screening Program

α2C-adrenoreceptors = biological target: T2, α2C-adrenoreceptors (Homo sapiens, UniProt P18825); assay: Radioligand binding counter-screen (NIMH PDSP)
T2 construct: NIMH Psychoactive Drug Screening Program
T2 sequence (P18825 1-462): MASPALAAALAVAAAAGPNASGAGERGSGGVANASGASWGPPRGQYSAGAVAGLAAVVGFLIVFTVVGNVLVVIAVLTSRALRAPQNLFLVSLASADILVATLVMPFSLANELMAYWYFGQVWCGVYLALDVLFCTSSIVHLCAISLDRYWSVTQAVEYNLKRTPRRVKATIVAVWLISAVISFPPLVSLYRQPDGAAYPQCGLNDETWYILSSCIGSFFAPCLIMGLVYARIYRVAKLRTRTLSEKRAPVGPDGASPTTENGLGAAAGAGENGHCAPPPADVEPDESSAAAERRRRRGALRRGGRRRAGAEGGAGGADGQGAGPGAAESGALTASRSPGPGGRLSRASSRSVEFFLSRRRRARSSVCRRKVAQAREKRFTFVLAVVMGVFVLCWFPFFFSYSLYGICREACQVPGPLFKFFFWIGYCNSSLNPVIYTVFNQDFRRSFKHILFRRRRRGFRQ

[1] = biological target: all screened targets except SERT and α2C-adrenoreceptors; assay: Radioligand binding counter-screen (NIMH PDSP), remaining targets; settings: non-opioid targets
mDOR [2] = biological target: T3, mDOR (Mus musculus, UniProt P32300); settings: binding assays
MOR [3] = biological target: T4, MOR (Homo sapiens, UniProt P35372)
rKOR [4] = biological target: T5, rKOR (Rattus norvegicus, UniProt P34975); settings: BRET, rodent receptors
KOR [5] = biological target: T6, KOR (Homo sapiens, UniProt P41145)
MOR [6] = biological target: T4, MOR; assay: cell-based
KOR [7] = biological target: T6, KOR; assay: cell-based
KOR [8] = biological target: T6, KOR; assay: cell-based; remark: listed apart in the source
DOR = DOR (Homo sapiens, UniProt P41143); assay: cell-based
mMOR [9] = biological target: T7, mMOR (Mus musculus, UniProt P42866); assay: cell-based
rKOR [10] = biological target: T5, rKOR; assay: cell-based
mDOR [11] = biological target: T3, mDOR; assay: cell-based
mMOR [12] = biological target: T7, mMOR; assay: biochemical
mKOR = mKOR (Mus musculus, UniProt P33534); assay: biochemical
mMOR [13] = biological target: T7, mMOR; assay: biochemical; remark: listed apart in the source
mDOR [14] = biological target: T3, mDOR; assay: biochemical; settings: read-out: Emax mDOR [35S]GTPγS
KOR [15] = biological target: T6, KOR; assay: Radioligand binding counter-screen (NIMH PDSP); parameters: NIMH Psychoactive Drug Screening Program
mMOR [16] = biological target: T7, mMOR; assay: cell-based; parameters: expressed in transfected cells; host or cells: HEK-293T
[17] = transduction coefficient log(T/KA)

T6 sequence (P41145 whole entry): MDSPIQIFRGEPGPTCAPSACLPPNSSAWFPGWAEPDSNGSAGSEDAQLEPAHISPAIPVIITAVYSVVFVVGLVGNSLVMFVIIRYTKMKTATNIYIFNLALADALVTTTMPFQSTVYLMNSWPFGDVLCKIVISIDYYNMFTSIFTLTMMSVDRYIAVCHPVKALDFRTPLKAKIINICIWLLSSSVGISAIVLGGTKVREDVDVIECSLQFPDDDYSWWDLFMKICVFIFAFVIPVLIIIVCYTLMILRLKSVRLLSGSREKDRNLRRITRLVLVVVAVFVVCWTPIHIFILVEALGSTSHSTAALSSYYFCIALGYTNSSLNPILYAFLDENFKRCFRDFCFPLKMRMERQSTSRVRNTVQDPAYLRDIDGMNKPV
T3 sequence (P32300 whole entry): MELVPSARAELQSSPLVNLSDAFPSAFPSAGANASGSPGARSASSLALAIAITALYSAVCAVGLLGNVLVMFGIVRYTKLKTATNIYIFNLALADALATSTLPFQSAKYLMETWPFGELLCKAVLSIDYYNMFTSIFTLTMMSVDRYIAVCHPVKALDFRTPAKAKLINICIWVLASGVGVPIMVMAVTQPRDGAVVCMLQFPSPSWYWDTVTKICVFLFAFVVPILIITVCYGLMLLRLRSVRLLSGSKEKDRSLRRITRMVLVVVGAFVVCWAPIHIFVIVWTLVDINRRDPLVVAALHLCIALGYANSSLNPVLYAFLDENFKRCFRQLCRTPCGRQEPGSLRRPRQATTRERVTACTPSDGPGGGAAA
T7 sequence (P42866 whole entry): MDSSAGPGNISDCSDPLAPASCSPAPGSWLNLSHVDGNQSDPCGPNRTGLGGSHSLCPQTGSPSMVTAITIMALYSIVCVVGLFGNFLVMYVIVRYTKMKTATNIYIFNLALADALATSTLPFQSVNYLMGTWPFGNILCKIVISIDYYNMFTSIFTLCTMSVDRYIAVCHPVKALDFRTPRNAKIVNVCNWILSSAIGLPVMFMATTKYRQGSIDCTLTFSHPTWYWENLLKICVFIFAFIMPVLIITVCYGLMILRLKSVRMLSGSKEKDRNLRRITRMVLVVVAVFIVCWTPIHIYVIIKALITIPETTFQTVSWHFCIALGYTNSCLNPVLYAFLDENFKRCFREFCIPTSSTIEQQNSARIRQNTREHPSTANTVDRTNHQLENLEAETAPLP
T4 sequence (P35372 whole entry): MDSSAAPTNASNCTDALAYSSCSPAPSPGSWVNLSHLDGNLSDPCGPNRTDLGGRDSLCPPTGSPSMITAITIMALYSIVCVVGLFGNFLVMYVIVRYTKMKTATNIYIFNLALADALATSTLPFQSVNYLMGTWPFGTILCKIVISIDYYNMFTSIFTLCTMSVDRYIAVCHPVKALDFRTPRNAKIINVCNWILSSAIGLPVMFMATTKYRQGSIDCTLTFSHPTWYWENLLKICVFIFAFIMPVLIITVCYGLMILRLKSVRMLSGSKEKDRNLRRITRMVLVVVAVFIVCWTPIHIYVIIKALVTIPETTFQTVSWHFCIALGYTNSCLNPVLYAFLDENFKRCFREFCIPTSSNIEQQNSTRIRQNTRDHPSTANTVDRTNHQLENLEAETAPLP
T5 sequence (P34975 whole entry): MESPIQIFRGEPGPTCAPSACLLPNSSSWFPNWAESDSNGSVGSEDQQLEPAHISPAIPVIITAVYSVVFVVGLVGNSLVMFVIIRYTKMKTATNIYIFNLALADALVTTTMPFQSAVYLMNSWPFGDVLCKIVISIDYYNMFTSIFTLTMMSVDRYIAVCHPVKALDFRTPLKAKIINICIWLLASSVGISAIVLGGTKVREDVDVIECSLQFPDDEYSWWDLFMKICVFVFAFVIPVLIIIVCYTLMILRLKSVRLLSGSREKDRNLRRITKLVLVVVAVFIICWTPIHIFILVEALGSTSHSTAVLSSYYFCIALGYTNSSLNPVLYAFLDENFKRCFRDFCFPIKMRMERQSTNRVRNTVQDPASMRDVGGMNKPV
Sequence of DOR (P41143 whole entry): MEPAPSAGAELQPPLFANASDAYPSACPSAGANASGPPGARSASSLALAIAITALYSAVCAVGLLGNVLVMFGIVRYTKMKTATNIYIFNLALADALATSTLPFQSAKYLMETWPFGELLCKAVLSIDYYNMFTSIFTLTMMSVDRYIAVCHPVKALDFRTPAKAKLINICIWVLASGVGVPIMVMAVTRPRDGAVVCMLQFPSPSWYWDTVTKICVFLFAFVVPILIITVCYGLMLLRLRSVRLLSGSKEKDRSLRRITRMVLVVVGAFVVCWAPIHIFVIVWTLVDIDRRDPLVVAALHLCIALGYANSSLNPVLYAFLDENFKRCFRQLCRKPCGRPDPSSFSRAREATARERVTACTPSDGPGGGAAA
T1 sequence (P31645 whole entry, species assumed): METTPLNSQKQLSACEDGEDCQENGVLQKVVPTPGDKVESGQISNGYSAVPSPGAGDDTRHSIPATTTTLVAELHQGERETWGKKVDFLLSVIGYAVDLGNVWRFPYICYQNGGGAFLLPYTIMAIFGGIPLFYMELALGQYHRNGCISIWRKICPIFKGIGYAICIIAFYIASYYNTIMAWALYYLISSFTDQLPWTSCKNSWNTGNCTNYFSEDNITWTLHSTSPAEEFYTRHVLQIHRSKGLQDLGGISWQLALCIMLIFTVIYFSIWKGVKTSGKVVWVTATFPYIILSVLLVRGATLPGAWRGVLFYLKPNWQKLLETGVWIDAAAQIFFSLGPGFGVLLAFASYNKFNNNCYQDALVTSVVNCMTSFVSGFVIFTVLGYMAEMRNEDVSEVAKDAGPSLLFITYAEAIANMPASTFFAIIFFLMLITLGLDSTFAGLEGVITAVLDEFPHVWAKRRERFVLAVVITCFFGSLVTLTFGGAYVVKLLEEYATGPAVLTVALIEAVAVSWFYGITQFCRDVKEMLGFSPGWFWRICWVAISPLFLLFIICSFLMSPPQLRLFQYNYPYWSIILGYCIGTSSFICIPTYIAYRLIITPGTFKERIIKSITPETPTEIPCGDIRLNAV
Sequence of mKOR (P33534 whole entry): as the sequence (P34975 whole entry) above, with E11D, A17S, P51S, V308A counted along it

## NCc1cccc(C(=O)N[C@@H]2CCC3C4Cc5ccc(O)c6c5[C@@]3(CCN4CC3CC3)C2O6)c1 (stereo partly drawn) [MP1207, 3-(Aminomethyl)-N-((7R,12bS)−3-(cyclopropylmethyl)−9-hydroxy-2,3,4,4a,5,6,7,7a-octahydro-1H-4,12-methanobenzofuro[3,2-e]isoquinolin-7-yl)benzamide]
SERT
  Ki: 356 nM
SERT; from counter-screen Ki
  selectivity for MOR and KOR over the nearest non-opioid target: 900 fold
α2C-adrenoreceptors
  Ki: 2980 nM
[1]
  Ki: > 10000 nM
mDOR [2]
  selectivity for MOR and KOR over DOR: more than 40 fold
MOR [3]
  arrestin recruitment at hMOR (in words): completely abolished
rKOR [4]
  arrestin recruitment at rKOR (in words): No recruitment of βarrestin-2
KOR [5]
  ΔΔlog RA (cAMP-Tango) hKOR: 0.903±0.026
KOR [5]; >1 G protein bias, <1 arrestin bias, vs U50,488h
  Bias factor (cAMP-Tango) hKOR: 8
KOR [5]; [17]
  Log RA cAMP hKOR: 9.902±0.004
  LogRA Tango hKOR: 7.97±0.024
KOR [5]; vs U50,488h
  ΔlogRA Tango hKOR: -0.176±0.025
  ΔlogRA cAMP hKOR: 0.73±0.006
MOR [6]; HEK-293T, read-out: Emax% cAMP inhibition hMOR
  Emax: 33 ± 1.4%
MOR [6]; pEC50 cAMP inhibition hMOR
  EC50: 0.0339 nM
KOR [7]; EC50 cAMP inhibition hKOR
  EC50: 0.11 nM
KOR [7]; HEK-293T, read-out: Emax% cAMP inhibition hKOR
  Emax: 90 ± 1.7%
KOR [7]; pEC50 cAMP inhibition hKOR, ± SEM
  EC50: 0.105 nM
KOR [8]; EC50 arrestin recruitment (Tango) hKOR
  EC50: 3.97 nM
KOR [8]; HTLA, read-out: Emax% arrestin recruitment (Tango) hKOR
  Emax: 37 ± 2%
DOR; EC50 arrestin recruitment hDOR, Tango
  EC50: 64.1 nM
DOR; HTLA, read-out: Emax% arrestin recruitment hDOR
  Emax: 34 ± 3.7%
mMOR [9]; EC50 G protein activation (BRET) mMOR
  EC50: 3.61 nM
mMOR [9]; HEK-293T, read-out: Emax% G protein activation (BRET) mMOR
  Emax: 42 ± 2.6%
rKOR [10]
  EC50: 1.13 nM
rKOR [10]; HEK-293T, read-out: Emax% G protein activation (BRET) rKOR
  Emax: 32 ± 2.3%
mDOR [11]; EC50 G protein activation (BRET) mDOR
  EC50: 116 nM
mDOR [11]; HEK-293T, read-out: Emax% G protein activation (BRET) mDOR
  Emax: 52 ± 2.3%
mMOR [12]
  Ki: 0.23 ± 0.02 nM
mKOR
  Ki: 0.39 ± 0.05 nM
mMOR [13]; EC50 mMOR [35S]GTPγS, ± SEM
  EC50: 1.3 nM and 1.29 nM
mMOR [13]; read-out: Emax mMOR [35S]GTPγS
  Emax: 41 ± 1%
mDOR [14]
  Emax: 10 to 15%
KOR [15]
  Ki: 0.39 nM
mMOR [16]
  arrestin recruitment at mMOR (in words): No recruitment of βarrestin-2
